Source: article PMC12356538, “Targeting the SARS-CoV‑2 RNA Translation Initiation Element SL1 by Molecules of Low Molecular Weight” (Journal of the American Chemical Society, 2025)

Experiments:
[1] = test system: SARS-CoV-2 SL1 RNA (SL1 wt); type: binding; settings: for wLOGSY factor / T2 reduction [%] / CSP [Hz]: 10 μM SL1 wt, 200 μM ligand; for wLOGSY factor / T2 reduction [%]: pH 6.2; for T2 reduction [%]: CPMG 100 vs 5 ms; for Rank: FBS ranking from summed ranks of CSP, wLOGSY and T2 results; for CSP [Hz]: ligand 1H CSP, [RNA]:[ligand] 1:20, pH 6.2; for FBS binding to SL1, in words: ligand-detected NMR
SL1 Δbulge RNA = type: binding, SARS-CoV-2

| Structure (SMILES) | wLOGSY factor [1] | T2 reduction [%] [1] | Rank ([1]; SL1 wt) | CSP [Hz] [1] | FBS binding to SL1, in words ([1]; SL1 wt) | FBS result (CSP, wLOGSY, T2 reduction) in words (SL1 Δbulge RNA) | CSP values relative to A.2 ([1]; ligand CSP, SL1 wt) |
| --- | --- | --- | --- | --- | --- | --- | --- |
| COCCN(C)CC(=O)Nc1nc2ccc(OC)cc2s1 [A.30] | 0.14 | 77.69% | 35 | 10.44 Hz |  |  |  |
| CC(C)(C)C(=O)Nc1nc2ccccc2s1 [A.7] |  |  |  |  | only minor effects |  |  |
| CN(C)CC(=O)Nc1nc2ccc(OC(F)(F)F)cc2s1 [A.28] | 1.01 | 85.67% | 21 | 13.56 Hz |  | no effects |  |
| COc1ccc2nc(NC(=O)CN(C)C3CC(C)(C)NC(C)(C)C3)sc2c1 [A.44] | 1.19 | 76.80% | 27 | 12.99 Hz |  | no effects |  |
| CN(C)CC(=O)Nc1nc2ccc(S(C)(=O)=O)cc2s1 [A.32] | 0.22 | 46.43% | 41 | 6.54 Hz |  | no effects |  |
| CN(C)CC(=O)Nc1nnc(-c2cc([N+](=O)[O-])cc([N+](=O)[O-])c2)s1 [A.41] | 0.59 | 93.02% | 21 | 13.68 Hz |  | no effects |  |
| COc1ccc2nc(NC(=O)CN(C)C)oc2c1 [A.35] |  |  |  |  | did not show any improvement | no effects |  |
| CC(=O)Nc1nc2ccccc2s1 [A.6] |  |  |  |  | only minor effects |  |  |
| CN(C)CC(=O)Nc1nc2cnc(Cl)nc2s1 [A.46] |  |  |  |  | did not show any improvement | no effects |  |
| CN(C)CC(=O)Nc1nc2ccc(Br)cc2s1 [A.16] | 0.74 | 83.00% | 17 | 27.60 Hz |  | no effects | 2–3 times |
| COc1ccc(-c2nnc(N)s2)cc1OC [A.23] |  |  |  |  | no hit |  |  |
| CN(C)CC(=O)Nc1nc2ccc(C(F)(F)F)cc2s1 [A.27] |  |  |  |  |  | no effects |  |
| COc1ccc(-c2nnc(N)s2)cc1 [A.22] |  |  |  |  | no hit |  |  |
| COc1ccc(-c2nnc(NC(=O)CN(C)C)s2)cc1 [A.21] | 1.43 | 95.00% | 13 | 12.57 Hz |  |  |  |
| COc1ccc2nc(N(C)C(=O)CN(C)C)sc2c1 [A.34] | 2.15 | 81.54% | 13 | 19.56 Hz | slightly higher affinity |  |  |
| COc1cc(OC)c2nc(NC(=O)CN(C)Cc3ccccc3)sc2c1 [A.25] |  |  |  |  |  | no effects |  |
| CN(C)CC(=O)Nc1nc2ccc(O)cc2s1 [A.12] | 0.15 | 69.00% | 40 | 10.02 Hz | among the weakest binders |  |  |
| COc1ccc2nc(NC(=O)CN(C)Cc3cncnc3)sc2c1 [A.33] |  |  |  |  | detrimental to binding to SL1 |  |  |
